Test results from US20240374598A1, “INHIBITORS OF HUMAN IMMUNODEFICIENCY VIRUS REPLICATION” (ViiV HEALTHCARE UK (NO.5) LIMITED, priority 2018, published 2024).

Experiments:
[1] = test system: recombinant NL4-3 virus (nef section replaced with Renilla luciferase gene) in MT-2 cells; experiment: HIV cell culture assay (antiviral activity, luciferase readout); format: cell-based; settings: NL43, MT-2 cells infected for 4-5 days with recombinant NL4-3 Renilla luciferase virus
Procedure: HIV cell culture assay—MT-2 cells, 293T cells and the proviral DNA clone of NL4-3 virus were obtained from the NIH AIDS Research and Reference Reagent Program. MT-2 cells were propagated in RPMI 1640 media supplemented with 10% heat inactivated fetal bovine serum (FBS), […]. The 293T cells were propagated in DMEM media supplemented with 10% heat inactivated FBS, […]. A recombinant NL4-3 proviral clone, in which a section of the nef gene was replaced with the Renilla luciferase gene, was used to make the reference virus used in these studies. The recombinant virus was prepared through transfection of the recombinant NL4-3 proviral clone into 293T cells using Transit-293 Transfection Reagent from Mirus Bio LLC (Madison, WI). Supernatent was harvested after 2-3 days and the amount of virus present was titered in MT-2 cells using luciferase enzyme activity as a marker by measuring luciferase enzyme activity. Luciferase was quantitated using the EnduRen Live Cell Substrate from Promega (Madison, WI). Antiviral activities of compounds toward the recombinant virus were quantified by measuring luciferase activity in MT-2 cells infected for 4-5 days with the recombinant virus in the presence of serial dilutions of the compound.
The 50% effective concentration (EC50) was calculated by using the exponential form of the median effect equation where (Fa)=1/[1+(ED50/drug conc.)m] (Johnson VA, Byington RT. Infectivity Assay. In Techniques in HIV Research. ed. Aldovini A, Walker BD. 71-76. New York: Stockton Press. 1990). The 50% inhibitory concentration (EC50) was calculated by using the exponential form of the median effect equation where percent inhibition=1/[1+(EC50/drug concentration)m], where m is a parameter that reflects the slope of the concentration-response curve.

[2] = Compound cytotoxicity, XTT-based colorimetric assay; format: cell-based; settings: human; uninfected MT2 cells, day 4, XTT assay
Procedure: Compound cytotoxicity and the corresponding CC50 values were determined using the same protocol as described in the antiviral assay except that uninfected cells were used. Cytotoxicity was assessed on day 4 in uninfected MT2 cells by using a XTT (2,3-bis[2-Methoxy-4-nitro-5-sulfophenyl]-2H-tetrazolium-5-carboxyanilide inner salt)-based colorimetric assay (Sigma-Aldrich, St Louis, Mo).

SMILES | EC50 [1] [nM] | CC50 at 4 day [2] [nM]
CS(=O)(=O)Nc1nn(CC(F)F)c2c(-n3c([C@H](Cc4cc(F)cc(F)c4)NC(=O)Cn4nc(C(F)F)c5c4C(F)(F)[C@@H]4C[C@H]54)nc4cc(CCC(F)(F)F)ccc4c3=O)ccc(Cl)c12 [Example 23, N—((S)-1-(3-(4-chloro-1-(2,2-difluoroethyl)-3-(methylsulfonamido)-1H-indazol-7-yl)-4-oxo-7-(3,3,3-trifluoropropyl)-3,4-dihydroquinazolin-2-yl)-2-(3,5-difluorophenyl)ethyl)-2-((3bS,4aR)-3-(difluoromethyl)-5,5-difluoro-3b,4,4a,5-tetrahydro-1H-cyclopropa[3,4]cyclopenta[1,2-c]pyrazol-1-yl)acetamide] | 0.094 | > 1000
O=C(Cn1nc(C(F)F)c2c1C(F)(F)[C@@H]1C[C@H]21)N[C@@H](Cc1cc(F)cc(F)c1)c1nc2cc(CCC(F)(F)F)ccc2c(=O)n1-c1ccc(Cl)c2c(NS(=O)(=O)C3CC3)nn(CC(F)F)c12 [Example 24, N—((S)-1-(3-(4-chloro-3-(cyclopropanesulfonamido)-1-(2,2-difluoroethyl)-1H-indazol-7-yl)-4-oxo-7-(3,3,3-trifluoropropyl)-3,4-dihydroquinazolin-2-yl)-2-(3,5-difluorophenyl)ethyl)-2-((3bS,4aR)-3-(difluoromethyl)-5,5-difluoro-3b,4,4a,5-tetrahydro-1H-cyclopropa[3,4]cyclopenta[1,2-c]pyrazol-1-yl)acetamide] | 0.155 | > 1000
CC(C)Cc1ccc2c(=O)n(-c3ccc(Cl)c4c(NS(C)(=O)=O)nn(C)c34)c([C@H](Cc3cc(F)cc(F)c3)NC(=O)Cn3nc(C(F)F)c4c3C(F)(F)[C@@H]3C[C@H]43)nc2c1 [Example 25, N—((S)-1-(3-(4-chloro-1-methyl-3-(methylsulfonamido)-1H-indazol-7-yl)-7-isobutyl-4-oxo-3,4-dihydroquinazolin-2-yl)-2-(3,5-difluorophenyl)ethyl)-2-((3bS,4aR)-3-(difluoromethyl)-5,5-difluoro-3b,4,4a,5-tetrahydro-1H-cyclopropa[3,4]cyclopenta[1,2-c]pyrazol-1-yl)acetamide] | 0.167 | > 1000
Cn1nc(NS(C)(=O)=O)c2c(Cl)ccc(-n3c([C@H](Cc4cc(F)cc(F)c4)NC(=O)Cn4nc(C(F)(F)F)c5c4C(F)(F)[C@@H]4C[C@H]54)nc4cc(C(C)(C)C)ccc4c3=O)c21 [Example 26, N—((S)-1-(7-(tert-butyl)-3-(4-chloro-1-methyl-3-(methylsulfonamido)-1H-indazol-7-yl)-4-oxo-3,4-dihydroquinazolin-2-yl)-2-(3,5-difluorophenyl)ethyl)-2-((3bS,4aR)-5,5-difluoro-3-(trifluoromethyl)-3b,4,4a,5-tetrahydro-1H-cyclopropa[3,4]cyclopenta[1,2-c]pyrazol-1-yl)acetamide] | 0.443 | > 1000
CC(C)(C)c1ccc2c(=O)n(-c3ccc(Cl)c4c(NS(=O)(=O)C5CC5)nn(CC(F)F)c34)c([C@H](Cc3cc(F)cc(F)c3)NC(=O)Cn3nc(C(F)F)c4c3C(F)(F)[C@@H]3C[C@H]43)nc2c1 [Example 27, N—((S)-1-(7-(tert-butyl)-3-(4-chloro-3-(cyclopropanesulfonamido)-1-(2,2-difluoroethyl)-1H-indazol-7-yl)-4-oxo-3,4-dihydroquinazolin-2-yl)-2-(3,5-difluorophenyl)ethyl)-2-((3bS,4aR)-3-(difluoromethyl)-5,5-difluoro-3b,4,4a,5-tetrahydro-1H-cyclopropa[3,4]cyclopenta[1,2-c]pyrazol-1-yl)acetamide] | 0.61 | > 1000
Cn1nc(NS(C)(=O)=O)c2c(Cl)ccc(-n3c([C@H](Cc4cc(F)cc(F)c4)NC(=O)Cn4nc(C(F)F)c5c4C(F)(F)[C@@H]4C[C@H]54)nc4cc(C(F)(F)C(C)(C)C)ccc4c3=O)c21 [Example 29, N—((S)-1-(3-(4-chloro-1-methyl-3-(methylsulfonamido)-1H-indazol-7-yl)-7-(1,1-difluoro-2,2-dimethylpropyl)-4-oxo-3,4-dihydroquinazolin-2-yl)-2-(3,5-difluorophenyl)ethyl)-2-((3bS,4aR)-3-(difluoromethyl)-5,5-difluoro-3b,4,4a,5-tetrahydro-1H-cyclopropa[3,4]cyclopenta[1,2-c]pyrazol-1-yl)acetamide] | 0.115 | > 1000
CS(=O)(=O)Nc1nn(CC(F)F)c2c(-n3c([C@H](Cc4cc(F)cc(F)c4)NC(=O)Cn4nc(C(F)F)c5c4C(F)(F)[C@@H]4C[C@H]54)nc4cc(C5CC5)ccc4c3=O)ccc(Cl)c12 [Example 30, N—((S)-1-(3-(4-chloro-1-(2,2-difluoroethyl)-3-(methylsulfonamido)-1H-indazol-7-yl)-7-cyclopropyl-4-oxo-3,4-dihydroquinazolin-2-yl)-2-(3,5-difluorophenyl)ethyl)-2-((3bS,4aR)-3-(difluoromethyl)-5,5-difluoro-3b,4,4a,5-tetrahydro-1H-cyclopropa[3,4]cyclopenta[1,2-c]pyrazol-1-yl)acetamide] | 0.097 | > 1000
O=C(Cn1nc(C(F)F)c2c1C(F)(F)[C@@H]1C[C@H]21)N[C@@H](Cc1cc(F)cc(F)c1)c1nc2cc(C3CC3)ccc2c(=O)n1-c1ccc(Cl)c2c(NS(=O)(=O)C3CC3)nn(CC(F)F)c12 [Example 31, N—((S)-1-(3-(4-chloro-3-(cyclopropanesulfonamido)-1-(2,2-difluoroethyl)-1H-indazol-7-yl)-7-cyclopropyl-4-oxo-3,4-dihydroquinazolin-2-yl)-2-(3,5-difluorophenyl)ethyl)-2-((3bS,4aR)-3-(difluoromethyl)-5,5-difluoro-3b,4,4a,5-tetrahydro-1H-cyclopropa[3,4]cyclopenta[1,2-c]pyrazol-1-yl)acetamide] | 0.046 | > 1000
Cn1nc(NS(C)(=O)=O)c2c(Cl)ccc(-n3c([C@H](Cc4cc(F)cc(F)c4)NC(=O)Cn4nc(C(F)F)c5c4C(F)(F)[C@@H]4C[C@H]54)nc4cc(C5CCCC5)ccc4c3=O)c21 [Example 32, N—((S)-1-(3-(4-chloro-1-methyl-3-(methylsulfonamido)-1H-indazol-7-yl)-7-cyclopentyl-4-oxo-3,4-dihydroquinazolin-2-yl)-2-(3,5-difluorophenyl)ethyl)-2-((3bS,4aR)-3-(difluoromethyl)-5,5-difluoro-3b,4,4a,5-tetrahydro-1H-cyclopropa[3,4]cyclopenta[1,2-c]pyrazol-1-yl)acetamide] | 0.285 | > 1000
Cn1nc(NS(C)(=O)=O)c2cccc(-n3c([C@H](Cc4cc(F)cc(F)c4)NC(=O)Cn4nc(C(F)F)c5c4C(F)(F)[C@@H]4C[C@H]54)nc4cc(C5CCCC5)ccc4c3=O)c21 [Example 33, N—((S)-1-(7-cyclopentyl-3-(1-methyl-3-(methylsulfonamido)-1H-indazol-7-yl)-4-oxo-3,4-dihydroquinazolin-2-yl)-2-(3,5-difluorophenyl)ethyl)-2-((3bS,4aR)-3-(difluoromethyl)-5,5-difluoro-3b,4,4a,5-tetrahydro-1H-cyclopropa[3,4]cyclopenta[1,2-c]pyrazol-1-yl)acetamide] | 1.26 | > 1000
